Data reported in US20130102595A1 (Curis, Inc., priority 2011, published 2013).

Key:
[1] = system: HDACs (HeLa cell nuclear extracts); experiment: HDAC enzymatic activity, Biomol Color de Lys system; type: biochemical; details: 1 hour, 25° C.
How it was run: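 IC50 from sigmoidal fit of developer-terminated fluorescence (ex 350-380/em 440-460 nm). Reaction: 1 h at room temperature (25 °C), HeLa nuclear extract as HDAC source, artificial substrate, buffer of 50 mM Tris/Cl pH 8.0 with 137 mM NaCl, 2.7 mM KCl and 1 mM MgCl2.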

[2] = biological target: T1, PI3Kα (p110α/p85α) (Homo sapiens, UniProt P42336); experiment: PI3Kα ADP-Glo assay; type: biochemical; details: 20 μM PIP2, 10 μM ATP, 30 minutes
T1 construct: GST (N); made in house; host or cells: Baculovirus-infected Sf9 cells
How it was run: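 Luminescent ADP-Glo detection, after depletion of residual ATP, quantified ADP made by PI3Kα phosphorylating 20 μM PIP2 at 10 μM ATP. The kinase step ran 30 min at room temperature in HEPES pH 7.4 with MgCl2, DTT and orthovanadate, using baculovirus/Sf9-expressed full-length p110α/p85α complex.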

T1 sequence (P42336 whole entry): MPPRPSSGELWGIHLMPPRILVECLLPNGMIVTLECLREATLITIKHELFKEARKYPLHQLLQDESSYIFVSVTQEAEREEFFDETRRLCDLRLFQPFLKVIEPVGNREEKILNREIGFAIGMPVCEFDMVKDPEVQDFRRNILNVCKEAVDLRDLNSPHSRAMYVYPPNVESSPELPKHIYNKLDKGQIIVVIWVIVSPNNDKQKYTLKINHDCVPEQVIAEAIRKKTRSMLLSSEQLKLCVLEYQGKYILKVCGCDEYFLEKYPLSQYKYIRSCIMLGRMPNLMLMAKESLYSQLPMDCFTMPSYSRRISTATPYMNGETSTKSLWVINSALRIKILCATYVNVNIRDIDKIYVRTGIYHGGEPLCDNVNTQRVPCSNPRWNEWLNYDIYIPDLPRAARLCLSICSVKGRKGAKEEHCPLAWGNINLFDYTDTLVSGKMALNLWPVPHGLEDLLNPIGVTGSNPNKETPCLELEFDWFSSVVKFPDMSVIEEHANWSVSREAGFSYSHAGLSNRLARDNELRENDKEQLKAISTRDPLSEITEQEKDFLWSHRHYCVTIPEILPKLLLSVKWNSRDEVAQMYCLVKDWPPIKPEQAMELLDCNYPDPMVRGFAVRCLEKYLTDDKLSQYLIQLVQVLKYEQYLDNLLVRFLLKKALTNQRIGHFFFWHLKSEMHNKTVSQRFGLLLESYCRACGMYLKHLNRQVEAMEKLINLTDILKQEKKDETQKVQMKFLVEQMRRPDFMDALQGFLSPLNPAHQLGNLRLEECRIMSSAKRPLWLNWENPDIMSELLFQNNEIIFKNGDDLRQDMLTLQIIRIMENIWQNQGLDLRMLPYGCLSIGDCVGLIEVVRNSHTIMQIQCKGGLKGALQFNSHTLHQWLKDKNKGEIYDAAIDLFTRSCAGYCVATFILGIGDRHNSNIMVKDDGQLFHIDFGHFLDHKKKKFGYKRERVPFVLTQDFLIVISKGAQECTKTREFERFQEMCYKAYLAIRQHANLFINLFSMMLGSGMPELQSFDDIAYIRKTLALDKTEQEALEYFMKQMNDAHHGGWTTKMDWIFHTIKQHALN
T1 sequence (P27986 whole entry partner): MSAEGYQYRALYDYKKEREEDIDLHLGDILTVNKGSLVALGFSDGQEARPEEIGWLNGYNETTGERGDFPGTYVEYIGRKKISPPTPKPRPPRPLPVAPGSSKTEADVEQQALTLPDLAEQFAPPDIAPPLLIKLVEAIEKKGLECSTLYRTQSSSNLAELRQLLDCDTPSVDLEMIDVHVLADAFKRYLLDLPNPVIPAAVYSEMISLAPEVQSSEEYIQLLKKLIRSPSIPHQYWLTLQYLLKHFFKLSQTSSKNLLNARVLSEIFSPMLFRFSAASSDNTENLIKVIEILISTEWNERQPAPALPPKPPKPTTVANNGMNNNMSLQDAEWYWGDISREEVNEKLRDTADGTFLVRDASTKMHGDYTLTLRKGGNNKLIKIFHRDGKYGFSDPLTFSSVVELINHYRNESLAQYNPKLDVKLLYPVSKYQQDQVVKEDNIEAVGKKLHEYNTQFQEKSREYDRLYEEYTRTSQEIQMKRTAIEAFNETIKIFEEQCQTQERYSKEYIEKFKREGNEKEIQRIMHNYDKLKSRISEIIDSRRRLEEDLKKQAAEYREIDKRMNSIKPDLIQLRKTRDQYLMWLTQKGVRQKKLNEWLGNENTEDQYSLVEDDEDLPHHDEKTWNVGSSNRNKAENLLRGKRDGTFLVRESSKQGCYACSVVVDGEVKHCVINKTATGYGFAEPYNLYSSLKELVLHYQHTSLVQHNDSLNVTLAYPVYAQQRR

SMILES	IC50 [1] [nM]	IC50 [2] [nM]	melting point [°C]
CS(=O)(=O)N1CCN(Cc2cc3nc(-c4cccc5nn(CCCCCCC(=O)NO)cc45)nc(N4CCOCC4)c3s2)CC1 [Compound 9, N-hydroxy-7-(4-(6-((4-(methylsulfonyl)piperazin-1-yl)methyl)-4-morpholinothieno[3,2-d]pyrimidin-2-yl)-2H-indazol-2-yl)heptanamide]	< 100	> 10000	123 to 126
O=C(CCCCCN1CCN(Cc2cc3nc(-c4cccc5[nH]ncc45)nc(N4CCOCC4)c3s2)CC1)NO [Compound 12]	100 to 1000	< 100	123 to 124
O=C(CCCCCCN1CCN(Cc2cc3nc(-c4cccc5[nH]ncc45)nc(N4CCOCC4)c3s2)CC1)NO [Compound 13, 7-(4-((2-(1H-indazol-4-yl)-4-morpholinothieno[3,2-d]pyrimidin-6-yl)methyl)piperazin-1-yl)-N-hydroxyheptanamide]	100 to 1000	100 to 1000	119 to 122
CS(=O)(=O)N1CCN(Cc2cc3nc(-c4cccc5[nH]ncc45)nc(N4CCN(CCCCC(=O)NO)CC4)c3s2)CC1 [Compound 30, 5-(4-(2-(1H-indazol-4-yl)-6-((4-(methylsulfonyl)piperazin-1-yl)methyl)thieno[3,2-d]pyrimidin-4-yl)piperazin-1-yl)-N-hydroxypentanamide]	100 to 1000	> 10000	142 to 145
CS(=O)(=O)N1CCN(Cc2cc3nc(-c4cccc5[nH]ncc45)nc(N4CCN(CCCCCC(=O)NO)CC4)c3s2)CC1 [Compound 31, 6-(4-(2-(1H-indazol-4-yl)-6-((4-(methylsulfonyl)piperazin-1-yl)methyl)thieno[3,2-d]pyrimidin-4-yl)piperazin-1-yl)-N-hydroxyhexanamide]	100 to 1000	> 10000	140 to 145
CS(=O)(=O)N1CCN(Cc2cc3nc(-c4cccc5[nH]ncc45)nc(N4CCN(CCCCCCC(=O)NO)CC4)c3s2)CC1 [Compound 32, 7-(4-(2-(1H-indazol-4-yl)-6-((4-(methylsulfonyl)piperazin-1-yl)methyl)thieno[3,2-d]pyrimidin-4-yl)piperazin-1-yl)-N-hydroxyheptanamide]	100 to 1000	> 10000	131 to 134
O=C(CCCNCc1cc2nc(-c3cccc4[nH]ncc34)nc(N3CCOCC3)c2s1)NO [Compound 41, 4-((2-(1H-indazol-4-yl)-4-morpholinothieno[3,2-d]pyrimidin-6-yl)methylamino)-N-hydroxybutanamide]	< 100	100 to 1000	149 to 152
O=C(CCCCNCc1cc2nc(-c3cccc4[nH]ncc34)nc(N3CCOCC3)c2s1)NO [Compound 42, 5-((2-(1H-indazol-4-yl)-4-morpholinothieno[3,2-d]pyrimidin-6-yl)methylamino)-N-hydroxypentanamide]	< 100	1000 to 10000	145 to 147
O=C(CCCCCCNCc1cc2nc(-c3cccc4[nH]ncc34)nc(N3CCOCC3)c2s1)NO [Compound 44, 7-((2-(1H-indazol-4-yl)-4-morpholinothieno[3,2-d]pyrimidin-6-yl)methylamino)-N-hydroxyheptanamide]	100 to 1000	< 100	188 to 190
O=C(NO)c1ccc(NCc2cc3nc(-c4cccc5[nH]ncc45)nc(N4CCOCC4)c3s2)nc1 [Compound 76, 6-((2-(1H-indazol-4-yl)-4-morpholinothieno[3,2-d]pyrimidin-6-yl)methylamino)-N-hydroxynicotinamide]	< 100	< 100	218 to 220
O=C(NO)c1ccc(NCc2cc3nc(-c4cccc5[nH]ncc45)nc(N4CCOCC4)c3s2)cc1 [Compound 78, 4-((2-(1H-indazol-4-yl)-4-morpholinothieno[3,2-d]pyrimidin-6-yl)methylamino)-N-hydroxybenzamide]	< 100	100 to 1000	180 to 183
